# Experimental data: patent publication US12673961B2 (Agios Pharmaceuticals, Inc., priority 2022, dated 2026)
# Target: T1, human PAH with the R408W mutation (Homo sapiens, UniProt P00439, R408W)
# T1 construct: expressed in transfected cells
# T1 sequence (P00439 1-452 R408W): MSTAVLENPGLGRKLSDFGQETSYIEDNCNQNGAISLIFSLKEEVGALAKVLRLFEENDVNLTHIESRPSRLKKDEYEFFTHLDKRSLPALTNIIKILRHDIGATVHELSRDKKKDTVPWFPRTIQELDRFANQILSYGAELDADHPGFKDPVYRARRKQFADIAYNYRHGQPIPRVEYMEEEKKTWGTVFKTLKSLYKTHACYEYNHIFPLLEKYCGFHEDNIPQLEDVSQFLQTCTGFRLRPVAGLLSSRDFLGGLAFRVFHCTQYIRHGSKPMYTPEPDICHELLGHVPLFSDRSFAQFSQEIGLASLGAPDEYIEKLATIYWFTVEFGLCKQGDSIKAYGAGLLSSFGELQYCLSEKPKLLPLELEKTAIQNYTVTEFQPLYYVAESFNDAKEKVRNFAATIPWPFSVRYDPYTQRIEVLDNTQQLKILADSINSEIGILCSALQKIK
# Experiment: Cell Based Phenylalanine Flux Assay;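 note: Ten-point dose curve from 2-fold serial dilutions, run in duplicate at 0.5% DMSO final, tracer step used 20 µM sepiapterin and 800 µM labeled phenylalanine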
# Parameters: scale not given here
# Conditions: A375 cells expressing R408W PAH; 24 hrs with compound, then 20 μM sepiapterin and 800 μM 13C9,15N-Phenylalanine for 4 hours; 13C-Tyrosine in media by LC-MS; average where tested multiple times
row,Structure (SMILES),AC50
1,Cc1cccn2nc(C3c4nc[nH]c4CCN3C(=O)c3ccnn3C(C)C)cc12 (centres unmarked),"E, E"
2,CC(C)c1cccn2nc(C3c4nc[nH]c4CCN3c3ncccn3)cc12 (centres unmarked),"E, E"

# More lines, now with the values ahead:
row,AC50,Structure (SMILES)
1,"E, E",COc1cccn2nc(C3c4nc[nH]c4CCN3C(=O)c3ccnn3C(F)(F)F)cc12 (centres unmarked)
2,E. E,O=C(c1ocnc1C(F)(F)F)N1CCc2[nH]cnc2C1c1cc2c(Cl)cccn2n1 (centres unmarked)

# Same assay, conditions: A375 cells expressing R408W PAH; 24 hrs with compound, then 20 μM sepiapterin and 800 μM 13C9,15N-Phenylalanine for 4 hours; 13C-Tyrosine in media by LC-MS; average where tested multiple times; read-out: AC50
row,Structure (SMILES),AC50 [nM]
1,"O=C(c1nnc(-c2ncccn2)o1)N1CCc2[nH]cnc2[C@H]1c1cc2c(OC(F)F)cccn2n1 (single isomer, unassigned)",1000 to 5000
2,"FC(F)(F)c1cccc2cc([C@@H]3c4nc[nH]c4CCN3c3nnc(C4CC4)o3)nn12 (single isomer, unassigned)",1000 to 5000
3,"Cc1cccc2cc([C@@H]3c4nc[nH]c4CCN3C(=O)c3nnc(C(C)(C)O)o3)nn12 (single isomer, unassigned)",1000 to 5000
4,"Cc1nnc(C(=O)N2CCc3[nH]cnc3C2c2nn3ccccc3c2C)o1 (single isomer, unassigned)",1000 to 5000
5,"Cc1c([C@@H]2c3nc[nH]c3CCN2C(=O)c2nnc(C(C)(C)O)o2)nn2ccccc12 (single isomer, unassigned)",> 5000

# Same assay, conditions: A375 cells expressing human R408W PAH; 24 hrs compound incubation; 13C-Tyrosine by LC-MS; average where tested multiple times; read-out: AC50
row,Structure (SMILES),AC50 [nM]
1,"Cc1cccc2cc([C@H]3c4nc[nH]c4CCN3C(=O)c3nnc(C(C)(C)F)o3)nn12 [Example 939, (R)-(5-(2-fluoropropan-2-yl)-1,3,4-oxadiazol-2-yl)(4-(7-methylpyrazolo[1,5-a]pyridin-2-yl)-6,7-dihydro-1H-imidazo[4,5-c]pyridin-5(4H)-yl)methanone]",> 5000
2,"Cc1ncoc1C(=O)N1CCc2[nH]cnc2[C@@H]1c1cc2cccc(Cl)n2n1 [Example 1175, (R)-(4-(7-chloropyrazolo [1,5-a]pyridin-2-yl)-6,7-dihydro-1H-imidazo[4,5-c]pyridin-5(4H)-yl)(4-methyloxazol-5-yl)methanone]",1000 to 5000
3,"C[C@@H](O)c1nc(C(F)F)c(C(=O)N2CCc3[nH]cnc3[C@@H]2c2cc3c(Cl)cccn3n2)o1 [Example 703, ((R)-4-(4-chloropyrazolo [1,5-a]pyridin-2-yl)-6,7-dihydro-1H-imidazo[4,5-c]pyridin-5(4H)-yl)(4-(difluoromethyl)-2-((R)-1-hydroxyethyl)oxazol-5-yl)methanone]",1000 to 5000

# Other lines, results leading:
row,AC50 [nM],Structure (SMILES)
1,< 500,"Cc1c(-c2nnc(C(=O)N3CCc4[nH]cnc4[C@H]3c3cc4c(Cl)cccn4n3)o2)cnn1C [Example 1214, (S)-(4-(4-chloropyrazolo [1,5-a]pyridin-2-yl)-6,7-dihydro-1H-imidazo[4,5-c]pyridin-5(4H)-yl)(5-(1,5-dimethyl-1H-pyrazol-4-yl)-1,3,4-oxadiazol-2-yl)methanone]"
2,> 5000,"Cn1ccc(-c2nnc(C(=O)N3CCc4[nH]cnc4[C@@H]3c3cc4c(C(F)(F)F)cccn4n3)o2)n1 (single isomer, unassigned) [Example 837]"
3,> 5000,"O=C(c1nnc(-c2ccccn2)o1)N1CCc2[nH]cnc2[C@@H]1c1cc2cccc(Cl)n2n1 [Example 1043, (R)-(4-(7-chloropyrazolo [1,5-a]pyridin-2-yl)-6,7-dihydro-1H-imidazo[4,5-c]pyridin-5(4H)-yl)(5-(pyridin-2-yl)-1,3,4-oxadiazol-2-yl) methanone]"
4,500 to 1000,"Cc1c(-c2nnc(C(=O)N3CCc4[nH]cnc4[C@H]3c3cc4cccc(C)n4n3)o2)cnn1C [Example 1188, (S)-(5-(1,5-dimethyl-1H-pyrazol-4-yl)-1,3,4-oxadiazol-2-yl)(4-(7-methylpyrazolo[1,5-a]pyridin-2-yl)-6,7-dihydro-1H-imidazo[4,5-c]pyridin-5(4H)-yl)methanone]"
5,< 500,"Cn1ncnc1C(=O)N1CCc2[nH]cnc2[C@H]1c1cc2c(Cl)cccn2n1 [Example 1050, (S)-(4-(4-chloropyrazolo [1,5-a]pyridin-2-yl)-6,7-dihydro-1H-imidazo[4,5-c]pyridin-5(4H)-yl)(1-methyl-1H-1,2,4-triazol-5-yl)methanone]"
6,< 500,"Cn1ccc(-c2nnc(C(=O)N3CCc4[nH]cnc4[C@H]3c3cc4c(F)cccn4n3)o2)n1 [Example 730, (S)-(4-(4-fluoropyrazolo [1,5-a]pyridin-2-yl)-6,7-dihydro-1H-imidazo[4,5-c]pyridin-5(4H)-yl)(5-(1-methyl-1H-pyrazol-3-yl)-1,3,4-oxadiazol-2-yl)methanone]"
7,1000 to 5000,"Cc1ncccc1-c1nnc(C(=O)N2CCc3[nH]cnc3[C@@H]2c2cc3c(C(F)(F)F)cccn3n2)o1 [Example 1305, (R)-(5-(2-methylpyridin-3-yl)-1,3,4-oxadiazol-2-yl)(4-(4-(trifluoromethyl)pyrazolo [1,5-a]pyridin-2-yl)-6,7-dihydro-1H-imidazo[4,5-c]pyridin-5(4H)-yl)methanone]"

# Same assay, conditions: A375 cells expressing human R408W PAH; 24 hrs with compound, then sepiapterin and 13C9,15N-Phenylalanine for 4 hours; 13C-Tyrosine by LC-MS; average where tested multiple times; read-out: AC50
row,Structure (SMILES),AC50 [nM]
1,"Cc1cccnc1-c1nnc(N2CCc3[nH]cnc3[C@H]2c2cc3c(C(F)F)cccn3n2)o1 [Example 2279, (S)-2-(4-(4-(difluoromethyl)pyrazolo[1,5-a]pyridin-2-yl)-1,4,6,7-tetrahydro-5H-imidazo [4,5-c]pyridin-5-yl)-5-(3-methylpyridin-2-yl)-1,3,4-oxadiazole]",< 500
2,"Cc1cccc2cc([C@@H]3c4nc[nH]c4CCN3c3ncc(C(F)(F)F)cn3)nn12 [Example 1802, (S)-4-(7-methylpyrazolo [1,5-a]pyridin-2-yl)-5-(5-(trifluoromethyl)pyrimidin-2-yl)-4,5,6,7-tetrahydro-1H-imidazo[4,5-c]pyridine]",500 to 1000
3,CC(C)c1nnc(C(=O)N2CCc3[nH]cnc3[C@@H]2c2cc3cccc(F)n3n2)o1 [Example 1554],> 5000
4,"Fc1cccc(F)c1-c1nnc(N2CCc3[nH]cnc3[C@@H]2c2cc3c(Cl)cccn3n2)o1 [Example 2062, (R)-2-(4-(4-chloropyrazolo [1,5-a]pyridin-2-yl)-1,4,6,7-tetrahydro-5H-imidazo [4,5-c]pyridin-5-yl)-5-(2,6-difluorophenyl)-1,3,4-oxadiazole]",> 5000
5,"Clc1cccn2nc([C@@H]3c4nc[nH]c4CCN3c3nnc(-c4cnccn4)o3)cc12 [Example 2161, (S)-2-(4-(4-chloropyrazolo [1,5-a]pyridin-2-yl)-1,4,6,7-tetrahydro-5H-imidazo[4,5-c]pyridin-5-yl)-5-(pyrazin-2-yl)-1,3,4-oxadiazole]",< 500
6,"CC(C)c1nnc(N2CCc3[nH]cnc3[C@H]2c2cc3c(C(F)F)cccn3n2)o1 [Example 2321, (S)-2-(4-(4-(difluoromethyl)pyrazolo[1,5-a]pyridin-2-yl)-1,4,6,7-tetrahydro-5H-imidazo [4,5-c]pyridin-5-yl)-5-isopropyl-1,3,4-oxadiazole]",< 500
7,"CC(C)(C)c1ncc(C(=O)N2CCc3[nH]cnc3[C@H]2c2cc3ccccn3n2)o1 [Example 1866, (S)-(2-(tert-butyl)oxazol-5-yl)(4-(pyrazolo[1,5-a]pyridin-2-yl)-1,4,6,7-tetrahydro-5H-imidazo[4,5-c]pyridin-5-yl)methanone]",< 500

# The next lines start with the values.
row,AC50 [nM],Structure (SMILES)
1,500 to 1000,"CC(C)(F)c1nnc(C(=O)N2CCc3[nH]cnc3[C@H]2c2cc3cccc(C(F)F)n3n2)o1 [Example 1436, (S)-(4-(7-(difluoromethyl)pyrazolo[1,5-a]pyridin-2-yl)-6,7-dihydro-1H-imidazo[4,5-c]pyridin-5(4H)-yl)(5-(2-fluoropropan-2-yl)-1,3,4-oxadiazol-2-yl)methanone]"
2,> 5000,"Cc1cccn2nc([C@H]3c4nc[nH]c4CCN3C(=O)c3nc4ccccc4o3)cc12 [Example 2021, (R)-benzo[d]oxazol-2-yl (4-(4-methylpyrazolo[1,5-a]pyridin-2-yl)-1,4,6,7-tetrahydro-5H-imidazo[4,5-c]pyridin-5-yl)methanone]"
3,< 500,"O=C(c1nnc(-c2ccn(C(F)(F)F)n2)o1)N1CCc2[nH]cnc2[C@H]1c1cc2c(Cl)cccn2n1 [Example 1476, (S)-(4-(4-chloropyrazolo [1,5-a]pyridin-2-yl)-6,7-dihydro-1H-imidazo[4,5-c]pyridin-5(4H)-yl)(5-(1-(trifluoromethyl)-1H-pyrazol-3-yl)-1,3,4-oxadiazol-2-yl)methanone]"
4,> 5000,"O=C(c1nnc(-c2ccn(C(F)(F)F)n2)o1)N1CCc2[nH]cnc2[C@@H]1c1cc2cccc(Cl)n2n1 [Example 1509, (R)-(4-(7-chloropyrazolo [1,5-a]pyridin-2-yl)-6,7-dihydro-1H-imidazo[4,5-c]pyridin-5(4H)-yl)(5-(1-(trifluoromethyl)-1H-pyrazol-3-yl)-1,3,4-oxadiazol-2-yl)methanone]"
5,> 5000,O=C(c1nnc(-c2cnn(C(F)(F)F)c2)o1)N1CCc2[nH]cnc2[C@@H]1c1cc2c(Cl)cccn2n1 [Example 1505]
6,> 5000,"O=C(c1nnc(-c2cnn(C(F)(F)F)c2)o1)N1CCc2[nH]cnc2[C@@H]1c1cc2c(C(F)(F)F)cccn2n1 [Example 1539, (R)-(5-(1-(trifluoromethyl)-1H-pyrazol-4-yl)-1,3,4-oxadiazol-2-yl)(4-(4-(trifluoromethyl)pyrazolo[1,5-a]pyridin-2-yl)-6,7-dihydro-1H-imidazo[4,5-c]pyridin-5(4H)-yl)methanone]"
